Reference: patent EP3120851A1, “4-AMINO-6-(2,6-DICHLOROPHENYL)-8-METHYL-2-(PHENYLAMINO)-PYRIDO[2,3-D]PYRIMIDIN-7(8H)-ONE FOR TREATMENT OF SOLID CANCERS” (Pangaea Biotech S.L., priority 2015, dated 2017)

Assays:
Assay in all cases: MTT proliferation assay, single agent
Assay type in all cases: cell-based
A431 = conditions: Homo sapiens, A-431, SCC, 72 h, mean of several independent experiments
Description: (§1) The compound of formula (1) was tested using a Thiazolyl Blue Tetrazolium Bromide (MTT) proliferation assay in a panel of tumor cell lines of different origins.
(§2) All culture materials were obtained from Biological Industries (Kibbutz Beit Haemek, Israel) or Invitrogen (Paisley, Scotland, United Kingdom). The non-tumor cell lines HF and HACAT were provided by Vall d'Hebrón Hospital and GmbH, respectively. The PC9 naïve cell line was provided by Mayumi Ono and, the H3122, HCC78 and 11-18 by Daniel Costa. The PC9-GR1, PC9-GR2, PC9-GR3, PC9-GR4, PC9-GR5 and PC9-ER cell lines were derived in house by exposing the parental PC9 cell line to increasing concentrations of erlotinib (ER) or gefitinib (GR). The rest of the cell lines in which compound (1) was tested were purchased from ATCC (H23, H1975, H2228, A549, H460, Calu-6, H1650, SK-MES-1, EBC1, SNU1, AGS, N87, PC3, BxPC3, DLD1, HT29, SW48, SCC9,FaDu, AU565, Gingival, Prostate, SU-DHL-1 and A431). All cell lines were maintained in RPMI medium supplemented with 10% FBS, 50 µg/mL penicillin-streptomycin and 2 mM L-Glutamine. All cells were grown in a humidified atmosphere with 5% CO2 at 37°C.
(§3) Cell viability in response to single agent treatment was assessed by the Thiazolyl Blue Tetrazolium Bromide (MTT) (Sigma, St Louis, MO) assay. Cells from each cell line were seeded at 2000 to 10000 per well in 96-well plates. […] After treatment, cells were incubated with medium containing MTT (0.75 mg/mL in medium) for 1-2 h at 37°C. Culture medium with MTT was removed and formazan crystals reabsorbed in 100 µL DMSO (Sigma, St. Louis, MO). Cell viability was determined by measuring the absorbance at 492 nm, using a microplate reader (BioWhittaker, Walkersville, MD).
(§4) The IC50s shown are the mean of several independent experiments. Standard errors are also listed Table 2. SCC means squamous cell carcinoma, ADC means adenocarcinoma, GBM means glioblastoma.

DLD1 = conditions: Homo sapiens, DLD-1, Colon ADC, KRAS, 72 h, mean of several independent experiments
Description: as §1, §2, §3, §4

EBC-1 = conditions: Homo sapiens, SCC Lung, c-Met ampl, 72 h, mean of several independent experiments
Description: as §1, §2, §3, §4

FaDu = conditions: Homo sapiens, SCC Head&Neck, DDR2 wt, 72 h, mean of several independent experiments
Description: as §1, §2, §3, §4

H2286 = conditions: Homo sapiens, NCI-H2286, SCC Lung, DDR2 mutated, 72 h, mean of several independent experiments
Description: as §1, §2, §3, §4

H23 = conditions: Homo sapiens, NCI-H23, Lung ADC, KRAS, 72 h, mean of several independent experiments
Description: as §1, §2, §3, §4

H322 = conditions: NCI-H322, Lung BAC, CD74-NRG1, 72 h, mean of several independent experiments
Description: as §1, §2, §3, §4

H460 = conditions: Homo sapiens, NCI-H460, Lung ADC, KRAS, 72 h, mean of several independent experiments
Description: as §1, §2, §3, §4

H520 = conditions: Homo sapiens, NCI-H520, SCC Lung, DDR2 wt, 72 h, mean of several independent experiments
Description: as §1, §2, §3, §4

HCC366 = conditions: SCC Lung, DDR2 mutated, 72 h, mean of several independent experiments
Description: as §1, §2, §3, §4

I638F+T654M = conditions: SCC Lung, DDR2 mutated, 72 h, mean of several independent experiments
Description: as §1, §2, §3, §4

L239R+T654M = conditions: SCC Lung, DDR2 mutated, 72 h, mean of several independent experiments
Description: as §1, §2, §3, §4

PC9-GR1 = conditions: Lung ADC, EGFR ex19, 72 h, mean of several independent experiments
Description: as §1, §2, §3, §4

PC9-GR5 = conditions: Lung ADC, EGFR ex19, 72 h, mean of several independent experiments
Description: as §1, §2, §3, §4

SCC9 = conditions: Homo sapiens, SCC-9, SCC Head&Neck, DDR2 wt, 72 h, mean of several independent experiments
Description: as §1, §2, §3, §4

SW48 = conditions: Homo sapiens, Colon ADC, EGFR ex18, 72 h, mean of several independent experiments
Description: as §1, §2, §3, §4

WM793 = conditions: Homo sapiens, Melanoma, BRAF V600E, 72 h, mean of several independent experiments
Description: as §1, §2, §3, §4

IC50 (A431): 1350 nM
IC50 (DLD1): 1000 nM
IC50 (H2286): 50 nM
IC50 (H322): 4350 nM
IC50 (H460): 1000 nM
IC50 (H520): 350 nM
IC50 (HCC366): 830 nM
IC50 (PC9-GR1): 1450 nM
IC50 (PC9-GR5): 1610 nM
IC50 (SW48): 750 nM
Compound: Cn1c(=O)c(-c2c(Cl)cccc2Cl)cc2c(N)nc(Nc3ccccc3)nc21 [Compound (1), 4-amino-6-(2,6-dichlorophenyl)-8-methyl-2-(phenylamino)-pyrido[2,3-d]pyrimidin-7(8H)-one]
IC50 (EBC-1): 5100 nM
IC50 (FaDu): 4850 nM
IC50 (H23): 1570 nM
IC50 (I638F+T654M): 770 nM
IC50 (L239R+T654M): 600 nM
IC50 (SCC9): 4350 nM
IC50 (WM793): 1600 nM
